Assay results reported in publication PMC11062922 (Nature Chemical Biology, 2023).

Tests used:
[1] = test system: phosphorylation sites in RKO cells; assay: Drug-perturbed phosphoproteome analysis in RKO cells; assay type: cell-based, human; details: RKO cells, 1 µM for 1 hour
Description: To be able to measure PKN3 activity in cells, bona fide substrates of the kinase would be needed but no such substrate has been conclusively validated yet. In search for such candidates, we compared the phosphoproteomes of RKO cells (human colorectal cancer cells expressing high PKN3 levels according to ProteomicsDB[53]) in response to the same three compounds (that only share PKN3 as a target), as well as THZ1 (a covalent inhibitor for which PKN3 is a reported off-target[51]) and in response to siRNA-mediated knockdown of PKN3 (Extended Data Fig. 9a,b). […] The respective numbers were far smaller for GSK949675A, GSK902056A (all four drugs used at 1 µM for 1 hour) or the siRNA experiment (48 h of knockdown; Fig. 5d, Extended Data Fig. 9d and Supplementary Table 5). Successful PKN3 knockdown (89 and 92% for 1 and 3 nM siRNA, respectively) was confirmed by parallel reaction monitoring (a quantitative mass spectrometry-based protein expression assay; Extended Data Fig. 10a).
For global phosphoproteomic analysis of PKN3 inhibitors, RKO cells were treated with 1 µM GSK949675A, THZ1, GSK902056A, SB-476429A or DMSO for 1 h in four biological replicates or PKN3 were knocked down as described. After treatment, cells were washed twice with PBS and lyzed by adding 300 µl of lysis buffer (40 mM Tris-HCl pH 7.6, 8 M Urea, EDTA-free protease inhibitor complete mini and phosphatase inhibitor cocktail). Lysates were sonicated (ten cycles, 30 s on, 30 s pause, at 4 °C) and subsequently cleared by centrifugation for 20 min at 21,000g at 4 °C. Protein concentration was determined by Bradford assay and 300 µg protein per condition was digested. After reduction with 10 mM DTT and alkylation of cysteine residues with 50 mM chloroacetamide, the Urea concentration was reduced to 1.5 M by adding […] of 40 mM Tris/HCl pH 7.6. Trypsin was added to a protease-to-protein ratio of 1:50 and digestion was performed over night at 37 °C and 700 r.p.m. on a thermoshaker. Samples were cooled down to room temperature and acidified to a pH < 3 with 0.5% trifluoroacetic acid (TFA) and desalted using 50 mg SepPak columns (Waters; wash solvent 0.07% TFA in deionized water; elution solvent 0.07% TFA, 50% ACN). Subsequently, samples were frozen at −80 °C and dried by vacuum centrifugation. Peptide concentrations were determined by NanoDrop 2000 spectrophotometer and peptide amounts were adjusted. Dried peptides were labeled with TMT6plex as published previously. […] Phosphopeptides were enriched using column based Fe-IMAC as described previously. Subsequently, phosphopeptides were separated into six fractions using high pH reversed-phase stage tips as described before. Samples were dried by vacuum centrifugation.
Nanoflow LC–MS/MS measurement of TMT-labeled phosphopeptides was performed using a Dionex Ultimate3000 nano HPLC coupled online to an Orbitrap Fusion Lumos Tribride (Thermo Fisher Scientific) mass spectrometer. Peptides were delivered to a trap column (75 μm × 2 cm, packed in house with 5 μm C18 resin; Reprosil-Pur AQ, Dr. Maisch) and washed for 10 min with 0.1% FA at a flow rate of 5 μl min^−1. […] MS1 spectra were recorded in the Orbitrap from 360 to 1,300 m/z at a resolution of 60,000 using an AGC target value of 4 × 10^5 charges and a maximum injection time of 20 ms. MS2 spectra were recorded in the Orbitrap at 15,000 resolution after HCD fragmentation using 35% NCE, an AGC target value of 5 × 10^4, maximum injection time of 22 ms and an isolation width of 0.7 m/z. The first mass was fixed to 100 m/z. The number of MS2 spectra was limited by a top ten method. For TMT quantification, an additional MS3 spectrum was acquired in the Orbitrap over a scan range of 100–1,000 m/z at 15,000 resolution (AGC of 1 × 10^5, maximum injection time of 50 ms). For this, fragment ions were selected by multi-notch isolation in the Quadrupole, allowing a maximum of ten notches and subsequently fragmentation by HCD at 55% NCE. Dynamic exclusion was set to 90 s. […]

AIFM1 = assay: Kinobeads competition binding: AIFM1; design: species or system human; details: target AIFM1
BMPR1B = biological target: T1, BMPR1B (Homo sapiens, UniProt O00238); assay: Kinobeads competition binding: BMPR1B; details: target BMPR1B;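 note: selectivity score: engagement of this protein divided by summed engagement of all targets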
T1 construct: endogenous in cells

CDK9 = assay: Kinobeads competition binding: CDK9; design: species or system human; details: target CDK9
FES = biological target: T2, FES (Homo sapiens, UniProt P07332); assay: Kinobeads competition binding: FES; details: target FES;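 note: selectivity score: engagement of this protein divided by summed engagement of all targets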
T2 construct: endogenous in cells
Description: Supplement 41589_2023_1459_MOESM4_ESM.xlsx, sheet "CATDS matrix" | column: FES

FYN = biological target: T3, FYN (Homo sapiens, UniProt P06241); assay: Kinobeads competition binding: FYN; details: target FYN;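 note: share of total target engagement due to this protein at one drug concentration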
T3 construct: endogenous in cells
Description: Supplement 41589_2023_1459_MOESM4_ESM.xlsx, sheet "CATDS matrix" | column: FYN

MAP2K1 = assay: Kinobeads competition binding: MAP2K1; design: species or system human; details: target MAP2K1
MAPK7 = assay: Kinobeads competition binding: MAPK7; design: species or system human; details: target MAPK7
MAPKAPK2 = biological target: T4, MAPKAPK2 (Homo sapiens, UniProt P49137); assay: Kinobeads competition binding: MAPKAPK2; details: target MAPKAPK2
T4 construct: endogenous in cells

MARK4 = assay: Kinobeads competition binding: MARK4; design: species or system human; details: target MARK4
NEK2 = assay: Kinobeads competition binding: NEK2; design: species or system human; details: target NEK2
OPA1 = assay: Kinobeads competition binding: OPA1; design: species or system human; details: target OPA1;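 note: target engagement share of this target among all targets at its Kdapp concentration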
PAK6 = biological target: T5, PAK6 (Homo sapiens, UniProt Q9NQU5); assay: Kinobeads competition binding: PAK6; details: target PAK6
T5 construct: a mixture of lysates from five cancer cell lines; endogenous in cells

PGK1 = assay: Kinobeads competition binding: PGK1; design: species or system human; details: target PGK1
PKMYT1 = assay: Kinobeads competition binding: PKMYT1; design: species or system human; details: target PKMYT1
ADCK3 = ADCK3 (Homo sapiens, UniProt Q8NI60); assay: Kinobeads competition binding: ADCK3; design: endogenous in cells; details: target ADCK3
Chain of ADCK3 (Q8NI60 163-647): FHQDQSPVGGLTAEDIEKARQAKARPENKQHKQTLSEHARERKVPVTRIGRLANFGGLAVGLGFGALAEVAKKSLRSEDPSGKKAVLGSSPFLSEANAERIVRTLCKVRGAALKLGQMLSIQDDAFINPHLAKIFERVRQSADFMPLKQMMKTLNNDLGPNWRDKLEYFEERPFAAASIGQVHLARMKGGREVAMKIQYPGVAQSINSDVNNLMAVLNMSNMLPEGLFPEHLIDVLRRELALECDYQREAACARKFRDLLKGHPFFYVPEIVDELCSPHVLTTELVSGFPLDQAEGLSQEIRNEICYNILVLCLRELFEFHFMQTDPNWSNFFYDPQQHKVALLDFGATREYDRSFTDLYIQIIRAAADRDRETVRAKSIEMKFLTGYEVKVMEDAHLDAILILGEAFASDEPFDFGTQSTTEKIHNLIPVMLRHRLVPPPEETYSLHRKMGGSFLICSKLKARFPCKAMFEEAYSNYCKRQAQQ

T1 sequence (O00238 14-502): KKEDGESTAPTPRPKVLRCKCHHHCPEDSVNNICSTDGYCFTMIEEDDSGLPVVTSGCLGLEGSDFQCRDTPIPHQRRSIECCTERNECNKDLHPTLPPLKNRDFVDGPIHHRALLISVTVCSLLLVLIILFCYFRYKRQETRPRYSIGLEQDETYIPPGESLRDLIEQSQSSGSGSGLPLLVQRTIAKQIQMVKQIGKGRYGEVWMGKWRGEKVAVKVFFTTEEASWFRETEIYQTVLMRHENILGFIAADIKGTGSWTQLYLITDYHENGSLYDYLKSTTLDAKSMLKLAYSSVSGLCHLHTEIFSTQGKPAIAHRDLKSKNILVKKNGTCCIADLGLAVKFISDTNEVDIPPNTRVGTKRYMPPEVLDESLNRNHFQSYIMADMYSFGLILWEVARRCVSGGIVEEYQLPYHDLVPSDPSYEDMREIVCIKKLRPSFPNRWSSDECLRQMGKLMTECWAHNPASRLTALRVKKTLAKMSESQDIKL
T2 sequence (P07332 whole entry): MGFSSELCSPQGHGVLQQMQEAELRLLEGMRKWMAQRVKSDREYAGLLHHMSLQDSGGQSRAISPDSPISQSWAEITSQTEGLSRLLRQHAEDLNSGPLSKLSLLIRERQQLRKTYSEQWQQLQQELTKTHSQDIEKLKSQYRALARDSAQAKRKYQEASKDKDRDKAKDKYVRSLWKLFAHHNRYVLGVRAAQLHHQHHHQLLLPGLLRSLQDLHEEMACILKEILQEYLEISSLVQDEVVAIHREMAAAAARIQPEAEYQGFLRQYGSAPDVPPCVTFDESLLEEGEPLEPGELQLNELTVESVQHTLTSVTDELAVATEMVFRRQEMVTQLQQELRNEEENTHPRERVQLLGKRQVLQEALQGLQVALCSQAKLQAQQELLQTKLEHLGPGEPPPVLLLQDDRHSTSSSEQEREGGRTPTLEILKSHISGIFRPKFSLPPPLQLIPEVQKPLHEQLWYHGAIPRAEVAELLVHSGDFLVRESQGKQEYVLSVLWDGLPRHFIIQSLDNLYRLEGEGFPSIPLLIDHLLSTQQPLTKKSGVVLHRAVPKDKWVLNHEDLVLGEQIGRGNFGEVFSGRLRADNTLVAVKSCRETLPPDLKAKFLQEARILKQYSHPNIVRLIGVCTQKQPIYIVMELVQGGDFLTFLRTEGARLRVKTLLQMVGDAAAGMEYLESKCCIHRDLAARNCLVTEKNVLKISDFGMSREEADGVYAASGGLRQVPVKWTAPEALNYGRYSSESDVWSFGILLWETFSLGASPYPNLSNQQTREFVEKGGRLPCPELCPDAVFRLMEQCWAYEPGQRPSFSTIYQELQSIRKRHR
T4 sequence (P49137 whole entry): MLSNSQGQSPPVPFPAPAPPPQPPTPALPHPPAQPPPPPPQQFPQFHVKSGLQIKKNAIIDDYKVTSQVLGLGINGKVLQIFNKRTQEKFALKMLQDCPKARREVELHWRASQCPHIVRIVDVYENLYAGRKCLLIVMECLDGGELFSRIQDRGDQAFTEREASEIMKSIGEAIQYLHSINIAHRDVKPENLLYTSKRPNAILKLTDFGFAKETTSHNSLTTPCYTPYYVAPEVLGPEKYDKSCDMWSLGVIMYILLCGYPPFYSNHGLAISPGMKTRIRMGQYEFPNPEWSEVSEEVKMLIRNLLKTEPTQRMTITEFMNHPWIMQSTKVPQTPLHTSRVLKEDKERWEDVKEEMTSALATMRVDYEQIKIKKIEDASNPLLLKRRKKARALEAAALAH
T3 sequence (P06241 whole entry): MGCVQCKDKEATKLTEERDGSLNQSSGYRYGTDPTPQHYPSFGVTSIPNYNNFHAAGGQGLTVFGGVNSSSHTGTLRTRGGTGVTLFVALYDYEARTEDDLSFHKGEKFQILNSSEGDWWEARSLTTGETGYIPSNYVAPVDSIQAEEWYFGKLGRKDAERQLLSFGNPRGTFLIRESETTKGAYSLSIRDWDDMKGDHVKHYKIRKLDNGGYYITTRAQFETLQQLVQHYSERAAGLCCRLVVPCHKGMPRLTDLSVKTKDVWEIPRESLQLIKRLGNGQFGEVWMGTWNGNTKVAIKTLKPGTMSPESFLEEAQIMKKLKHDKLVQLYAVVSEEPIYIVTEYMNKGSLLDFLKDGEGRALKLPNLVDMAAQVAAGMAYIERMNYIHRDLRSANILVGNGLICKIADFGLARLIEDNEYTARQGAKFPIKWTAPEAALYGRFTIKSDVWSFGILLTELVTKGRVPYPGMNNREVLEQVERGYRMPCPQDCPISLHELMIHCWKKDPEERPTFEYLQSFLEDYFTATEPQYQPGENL
T5 sequence (Q9NQU5 whole entry): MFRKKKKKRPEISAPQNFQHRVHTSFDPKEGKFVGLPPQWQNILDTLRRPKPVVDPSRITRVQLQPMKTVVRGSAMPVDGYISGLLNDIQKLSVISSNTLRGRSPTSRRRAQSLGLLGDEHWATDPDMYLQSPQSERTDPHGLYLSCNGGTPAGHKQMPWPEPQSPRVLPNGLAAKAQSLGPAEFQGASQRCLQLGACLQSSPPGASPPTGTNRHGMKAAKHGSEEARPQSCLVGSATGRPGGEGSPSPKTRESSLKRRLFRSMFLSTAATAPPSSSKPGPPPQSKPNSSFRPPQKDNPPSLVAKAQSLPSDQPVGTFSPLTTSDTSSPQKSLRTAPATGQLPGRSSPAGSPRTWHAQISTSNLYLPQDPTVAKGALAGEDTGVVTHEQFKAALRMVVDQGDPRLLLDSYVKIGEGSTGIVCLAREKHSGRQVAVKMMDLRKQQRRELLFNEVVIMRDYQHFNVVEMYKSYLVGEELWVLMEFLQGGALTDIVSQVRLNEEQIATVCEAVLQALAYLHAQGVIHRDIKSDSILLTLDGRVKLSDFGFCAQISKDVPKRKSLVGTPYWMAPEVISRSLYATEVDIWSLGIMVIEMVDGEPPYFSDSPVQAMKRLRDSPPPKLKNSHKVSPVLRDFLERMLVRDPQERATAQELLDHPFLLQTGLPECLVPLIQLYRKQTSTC

Structure (SMILES)	number of perturbed phosphorylation sites [1]	CATDS (AIFM1)	CATDS (BMPR1B)	CATDS (CDK9)	CATDS (FES)	CATDS (FYN)	CATDS (MAP2K1)	CATDS (MAPK7)	CATDS (MAPKAPK2)	CATDS (MARK4)	CATDS (NEK2)	CATDS (OPA1)	CATDS (PAK6)	CATDS (PGK1)	CATDS (PKMYT1)	CATDS (ADCK3)	PKN3 activation loop p sites (S544 and T550) [1]
CCn1c(-c2nonc2N)nc2c(C#CC(C)(C)O)nc(OCCNC)cc21 [GSK949675A]	far smaller	–	–	–	–	–	–	–	–	–	–	–	–	–	–	–	–
CCc1cc2c(cc1N1CCC(N3CCOCC3)CC1)C(C)(C)c1[nH]c3cc(C#N)ccc3c1C2=O [Alectinib]	–	0	0	0	0	0	0	0	0	0	0	0	0	0	0	0	–
CCN1CCN(Cc2ccc(Nc3ncc(F)c(-c4cc(F)c5nc(C)n(C(C)C)c5c4)n3)nc2)CC1 [Abemaciclib]	–	0	0	0.02947	0	0	0	0	0	0	0	0	0	0	0	0	–
Nc1ncnc2[nH]c(-c3ccccc3)nc12 [AH5015_KCGS]	–	0	0	0	0	0	0	0	0	0	0	0	0	0	0	0	–
CCn1c(-c2nonc2N)nc2c(C#CC(C)(C)O)nc(OCCN)cc21 [GSK902056A]	far smaller	–	–	–	–	–	–	–	–	–	–	–	–	–	–	–	–
N#CC1(c2ccc(NC(=O)c3cccnc3NCc3ccncc3)cc2)CCCC1 [Apatinib]	–	0	0	0	0	0	0	0	0	0	0	0	0	0	0	0	–
NCc1ccc(-c2nc(-c3ccncc3)c(-c3ccc(Cl)c(O)c3)[nH]2)cc1 [SB-476429-A]	a large number of p sites	–	–	–	–	–	–	–	–	–	–	–	–	–	–	–	substantial reduction
CN(C)C/C=C/C(=O)Nc1cc2c(Nc3ccc(F)c(Cl)c3)ncnc2cc1O[C@H]1CCOC1 [Afatinib]	–	0	–	–	0	0	–	–	–	–	–	0	–	0	–	–	–
